The source made the active and inactive calls.
Key:
Fatty acid synthase [1] = biological target: T1, Fatty acid synthase (Homo sapiens, UniProt P49327); test: FAS thioesterase domain inhibitors, dose response, biochemical, endpoint fluorescence intensity, uHTS hits (AID 624327); type: functional;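 also: fluorescence from hydrolysis of an O-methyl fluorescein acyl ester substrate by the enzyme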
Nonstructural protein 1 = Nonstructural protein 1 (Influenza A virus, UniProt Q194T2); type: functional, Influenza A virus (A/California/07/2009(H1N1))
Fatty acid synthase [2] = biological target: T1, Fatty acid synthase; test: FAS thioesterase domain inhibitors, dose response, biochemical, kinetic fluorescence intensity (AID 624326); type: functional;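 also: rate of fluorescence rise from hydrolysis of a fluorogenic O-methyl fluorescein ester substrate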
[3] = biological target: T2, Short transient receptor potential channel 4 (Mus musculus, UniProt Q9QUQ5); test: mouse TRPC4 channel activators, dose response, cell-based, HEK293 TRPC4/mu-opioid, Fluo-4 calcium (AID 434937); type: functional
T2 sequence (Q9QUQ5 whole entry): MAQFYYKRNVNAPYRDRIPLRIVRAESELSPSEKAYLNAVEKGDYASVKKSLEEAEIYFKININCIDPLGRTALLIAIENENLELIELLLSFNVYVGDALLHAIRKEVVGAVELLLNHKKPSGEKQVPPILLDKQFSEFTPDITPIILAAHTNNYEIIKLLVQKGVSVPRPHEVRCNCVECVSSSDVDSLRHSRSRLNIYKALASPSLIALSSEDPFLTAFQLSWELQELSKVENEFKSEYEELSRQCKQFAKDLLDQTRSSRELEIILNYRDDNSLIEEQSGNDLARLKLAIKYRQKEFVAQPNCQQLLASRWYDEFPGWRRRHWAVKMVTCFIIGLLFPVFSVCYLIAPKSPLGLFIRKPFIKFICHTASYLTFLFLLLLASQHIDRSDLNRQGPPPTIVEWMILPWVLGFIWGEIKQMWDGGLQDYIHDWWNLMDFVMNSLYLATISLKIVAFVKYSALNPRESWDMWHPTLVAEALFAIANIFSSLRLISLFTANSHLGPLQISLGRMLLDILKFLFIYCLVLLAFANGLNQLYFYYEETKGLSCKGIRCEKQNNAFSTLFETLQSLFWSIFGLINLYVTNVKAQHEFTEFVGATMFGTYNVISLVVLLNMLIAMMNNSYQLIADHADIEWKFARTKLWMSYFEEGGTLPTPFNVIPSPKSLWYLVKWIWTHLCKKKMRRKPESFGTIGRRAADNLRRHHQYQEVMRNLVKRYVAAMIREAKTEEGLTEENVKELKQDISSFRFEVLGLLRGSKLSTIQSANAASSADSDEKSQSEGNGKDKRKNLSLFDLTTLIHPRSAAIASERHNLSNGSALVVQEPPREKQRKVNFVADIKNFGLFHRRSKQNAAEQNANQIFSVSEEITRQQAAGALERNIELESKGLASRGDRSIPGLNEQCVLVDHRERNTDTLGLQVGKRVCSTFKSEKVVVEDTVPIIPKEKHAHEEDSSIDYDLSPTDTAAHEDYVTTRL

[4] = biological target: Induced myeloid leukemia cell differentiation protein Mcl-1 (Homo sapiens, UniProt Q07820); type: functional
[5] = cytotoxicity in HEK-293T cells, dose response, cytotoxicity control for TCR NF-kB inhibitor project, luminescence, T-cell screen hits (AID 489026); type: functional, cell-based;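 also: cells exposed to compound about 14 hours before the viability readout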
[6] = inhibitors of firefly luciferase expression or activity, dose response, H4 neuroglioma cells, luminescence (AID 1990); type: functional, cell-based
[7] = Luminescence Cell-Based Dose Response HTS to Identify Inhibitors of 5'UTR Stem-Loop Driven Prion Protein mRNA Translation in H4 Neuroglioblastoma Cells. [Related pubchem assays: 1827 (Project Summary), 1813 (Primary HTS)]; type: functional
[8] = biological target: G-protein coupled receptor 55 (Homo sapiens, UniProt Q9Y2T6); test: GPR55 antagonists blocking LPI-driven arrestin recruitment, primary screen, imaging, U2OS, beta-arrestin-GFP, LPI agonist (AID 2013); type: functional;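 also: antagonist potency measured as reduced agonist-driven arrestin aggregation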
[9] = biological target: T3, Nuclear receptor subfamily 0 group B member 1 (Homo sapiens, UniProt P51843); test: Luminescence-based cell-based high throughput dose response assay for inhibitors of the orphan nuclear receptor subfamily 0, group B, member 1 (DAX1; NR0B1). [Related pubchem assays (depositor defined):AID504766, AID504790]; type: functional
T3 sequence (P51843 whole entry): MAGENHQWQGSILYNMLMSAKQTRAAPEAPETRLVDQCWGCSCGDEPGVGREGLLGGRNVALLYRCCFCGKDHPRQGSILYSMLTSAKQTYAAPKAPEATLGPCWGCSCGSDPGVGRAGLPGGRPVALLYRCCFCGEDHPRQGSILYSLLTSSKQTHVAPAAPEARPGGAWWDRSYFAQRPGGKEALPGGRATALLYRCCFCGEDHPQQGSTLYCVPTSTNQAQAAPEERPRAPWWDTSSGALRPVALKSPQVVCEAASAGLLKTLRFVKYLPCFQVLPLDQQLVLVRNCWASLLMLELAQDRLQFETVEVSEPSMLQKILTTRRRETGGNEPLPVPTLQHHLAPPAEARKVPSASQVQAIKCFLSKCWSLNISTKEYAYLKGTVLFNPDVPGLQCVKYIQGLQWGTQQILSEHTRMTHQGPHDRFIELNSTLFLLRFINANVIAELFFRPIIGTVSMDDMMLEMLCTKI

HEK293 = test: cells; type: functional, cell-based; conditions: Homo sapiens
Protein skinhead-1 = biological target: T4, Protein skinhead-1 (Caenorhabditis elegans, UniProt P34707); type: functional
T4 sequence (P34707 whole entry): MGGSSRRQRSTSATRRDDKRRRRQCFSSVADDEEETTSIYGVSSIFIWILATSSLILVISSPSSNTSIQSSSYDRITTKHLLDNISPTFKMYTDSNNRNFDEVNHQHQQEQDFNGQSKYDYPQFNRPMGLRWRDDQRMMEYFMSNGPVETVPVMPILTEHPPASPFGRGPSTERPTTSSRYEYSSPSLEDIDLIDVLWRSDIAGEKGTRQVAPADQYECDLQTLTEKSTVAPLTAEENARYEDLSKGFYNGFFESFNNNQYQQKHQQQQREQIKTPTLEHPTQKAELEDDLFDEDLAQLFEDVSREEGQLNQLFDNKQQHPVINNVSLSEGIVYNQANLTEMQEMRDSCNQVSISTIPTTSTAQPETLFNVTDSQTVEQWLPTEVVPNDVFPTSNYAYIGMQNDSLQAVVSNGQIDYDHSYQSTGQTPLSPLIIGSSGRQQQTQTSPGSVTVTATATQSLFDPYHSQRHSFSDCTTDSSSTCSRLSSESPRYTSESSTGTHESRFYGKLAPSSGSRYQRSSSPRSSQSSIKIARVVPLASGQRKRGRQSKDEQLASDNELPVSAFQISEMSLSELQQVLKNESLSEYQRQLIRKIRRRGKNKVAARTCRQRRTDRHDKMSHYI

Cytochrome P450 3A4 = Cytochrome P450 3A4 (Homo sapiens, UniProt P08684); conditions: Potency;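 also: confirmatory qHTS run detecting inhibitors and substrates of CYP3A4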
[10] = Luminescence Cell-Based Dose Retest to Confirm Inhibitors of Cancer Stem Cells. [Related pubchem assays (depositor defined):AID2717, AID2721]; type: functional; conditions: Homo sapiens
[11] = biological target: T5, Endoribonuclease toxin MazF (Escherichia coli K-12, UniProt P0AE70); test: MazF toxin RNase activators, dose response, biochemical, fluorescence, single-stranded RNA substrate, uHTS hits (AID 588481); type: functional
T5 sequence (P0AE70 whole entry): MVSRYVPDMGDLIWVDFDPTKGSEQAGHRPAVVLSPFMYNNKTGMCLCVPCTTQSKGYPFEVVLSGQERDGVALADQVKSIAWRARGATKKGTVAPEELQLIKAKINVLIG

[12] = biological target: T5, Endoribonuclease toxin MazF; test: fluorescent RNA oligo signal without MazF, dose response, counter-screen for MazEF activator project, biochemical, fluorescence, single-stranded RNase substrate (AID 588502); type: functional
Vero = test: cells; type: functional; conditions: Chlorocebus sabaeus
[13] = biological target: T6, Zinc finger protein mex-5 (Caenorhabditis elegans, UniProt Q9XUB2); test: MEX-5/TCR-2 RNA interaction inhibitors, dose response, biochemical, C. elegans, fluorescence polarization (AID 1960)
T6 sequence (Q9XUB2 whole entry): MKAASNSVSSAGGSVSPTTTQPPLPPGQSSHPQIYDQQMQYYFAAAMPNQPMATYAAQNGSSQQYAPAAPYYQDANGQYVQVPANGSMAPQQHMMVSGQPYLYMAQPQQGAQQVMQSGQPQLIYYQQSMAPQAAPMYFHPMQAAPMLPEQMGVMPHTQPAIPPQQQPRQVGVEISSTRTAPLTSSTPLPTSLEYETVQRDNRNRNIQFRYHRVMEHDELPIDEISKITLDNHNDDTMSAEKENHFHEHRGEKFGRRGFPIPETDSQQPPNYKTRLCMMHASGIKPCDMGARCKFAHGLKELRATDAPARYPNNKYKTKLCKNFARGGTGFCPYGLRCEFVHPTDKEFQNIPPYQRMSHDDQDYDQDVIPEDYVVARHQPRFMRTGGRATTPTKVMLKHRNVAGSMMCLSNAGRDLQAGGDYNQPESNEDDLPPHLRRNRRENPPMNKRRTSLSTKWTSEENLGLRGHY

[14] = biological target: T7, RNA-binding protein pos-1 (Caenorhabditis elegans, UniProt G5EF15); test: inhibitors of POS-1/mex-3 RNA binding, dose response, biochemical, fluorescence polarization (AID 1964);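 also: purified POS-1 fused to maltose binding protein made in E. coli; potency of compounds blocking POS-1 binding to fluorescent RNA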
T7 sequence (G5EF15 whole entry): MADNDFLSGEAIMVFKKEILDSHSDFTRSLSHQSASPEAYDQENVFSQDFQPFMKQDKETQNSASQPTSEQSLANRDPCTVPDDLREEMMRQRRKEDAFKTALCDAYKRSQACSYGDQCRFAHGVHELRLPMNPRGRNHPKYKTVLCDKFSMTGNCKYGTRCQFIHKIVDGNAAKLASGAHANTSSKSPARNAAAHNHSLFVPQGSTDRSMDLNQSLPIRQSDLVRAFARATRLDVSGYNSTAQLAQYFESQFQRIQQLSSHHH

BJ [15] = test: cytotoxicity toward BJ-TERT fibroblasts, dose response, cell-based, RAS-independent, luminescence (AID 1933); type: functional; conditions: Homo sapiens
BJ [16] = test: cytotoxicity toward BJ-TERT-LT-ST fibroblasts, dose response, cell-based, RAS-independent, luminescence (AID 1935); type: functional; conditions: Homo sapiens;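 also: BJ fibroblasts immortalized with TERT plus LT and ST oncogenes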
[17] = cytotoxicity toward DRD oncogenic fibroblasts, dose response, cell-based, non-viral oncogenic, luminescence (AID 1934); type: functional; conditions: Homo sapiens
BJ [18] = test: cells; type: functional, cell-based; conditions: Homo sapiens
[19] = inhibitors of SNCA 5'UTR-driven reporter translation, confirmation, H4 neuroglioma cells, luminescence (AID 1988); type: functional, cell-based

Sequence of G-protein coupled receptor 55 (Q9Y2T6 whole entry): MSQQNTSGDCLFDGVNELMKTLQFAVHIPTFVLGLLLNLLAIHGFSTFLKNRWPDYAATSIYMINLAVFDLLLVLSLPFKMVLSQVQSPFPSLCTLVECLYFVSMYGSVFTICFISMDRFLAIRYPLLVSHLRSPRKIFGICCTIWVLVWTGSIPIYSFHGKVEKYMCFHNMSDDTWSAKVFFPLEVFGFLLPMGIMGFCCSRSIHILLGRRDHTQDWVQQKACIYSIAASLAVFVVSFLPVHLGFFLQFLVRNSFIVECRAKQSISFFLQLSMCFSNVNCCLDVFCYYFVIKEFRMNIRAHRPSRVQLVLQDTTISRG
Sequence of Cytochrome P450 3A4 (P08684 whole entry): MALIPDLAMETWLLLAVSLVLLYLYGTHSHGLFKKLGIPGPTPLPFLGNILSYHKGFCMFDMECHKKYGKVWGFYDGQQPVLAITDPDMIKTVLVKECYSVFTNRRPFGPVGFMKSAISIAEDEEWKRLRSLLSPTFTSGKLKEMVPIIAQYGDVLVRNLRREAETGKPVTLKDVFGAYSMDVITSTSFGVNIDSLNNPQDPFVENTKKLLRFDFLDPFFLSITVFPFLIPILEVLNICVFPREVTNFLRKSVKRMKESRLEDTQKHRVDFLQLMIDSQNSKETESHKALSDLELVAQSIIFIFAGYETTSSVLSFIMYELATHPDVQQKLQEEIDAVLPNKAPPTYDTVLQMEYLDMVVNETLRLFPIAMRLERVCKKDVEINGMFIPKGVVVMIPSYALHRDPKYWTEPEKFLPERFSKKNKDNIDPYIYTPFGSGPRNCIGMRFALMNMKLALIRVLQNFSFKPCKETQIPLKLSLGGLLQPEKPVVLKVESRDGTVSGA
Sequence of Nonstructural protein 1 (Q194T2 whole entry, the tested form may be a part): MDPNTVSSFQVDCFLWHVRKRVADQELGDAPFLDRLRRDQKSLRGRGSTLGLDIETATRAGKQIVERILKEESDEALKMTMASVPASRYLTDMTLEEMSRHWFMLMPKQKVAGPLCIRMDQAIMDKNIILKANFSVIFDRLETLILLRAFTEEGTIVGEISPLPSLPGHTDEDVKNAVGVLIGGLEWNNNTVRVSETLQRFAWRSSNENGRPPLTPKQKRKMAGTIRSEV
T1 sequence (P49327 whole entry, the tested form may be a part): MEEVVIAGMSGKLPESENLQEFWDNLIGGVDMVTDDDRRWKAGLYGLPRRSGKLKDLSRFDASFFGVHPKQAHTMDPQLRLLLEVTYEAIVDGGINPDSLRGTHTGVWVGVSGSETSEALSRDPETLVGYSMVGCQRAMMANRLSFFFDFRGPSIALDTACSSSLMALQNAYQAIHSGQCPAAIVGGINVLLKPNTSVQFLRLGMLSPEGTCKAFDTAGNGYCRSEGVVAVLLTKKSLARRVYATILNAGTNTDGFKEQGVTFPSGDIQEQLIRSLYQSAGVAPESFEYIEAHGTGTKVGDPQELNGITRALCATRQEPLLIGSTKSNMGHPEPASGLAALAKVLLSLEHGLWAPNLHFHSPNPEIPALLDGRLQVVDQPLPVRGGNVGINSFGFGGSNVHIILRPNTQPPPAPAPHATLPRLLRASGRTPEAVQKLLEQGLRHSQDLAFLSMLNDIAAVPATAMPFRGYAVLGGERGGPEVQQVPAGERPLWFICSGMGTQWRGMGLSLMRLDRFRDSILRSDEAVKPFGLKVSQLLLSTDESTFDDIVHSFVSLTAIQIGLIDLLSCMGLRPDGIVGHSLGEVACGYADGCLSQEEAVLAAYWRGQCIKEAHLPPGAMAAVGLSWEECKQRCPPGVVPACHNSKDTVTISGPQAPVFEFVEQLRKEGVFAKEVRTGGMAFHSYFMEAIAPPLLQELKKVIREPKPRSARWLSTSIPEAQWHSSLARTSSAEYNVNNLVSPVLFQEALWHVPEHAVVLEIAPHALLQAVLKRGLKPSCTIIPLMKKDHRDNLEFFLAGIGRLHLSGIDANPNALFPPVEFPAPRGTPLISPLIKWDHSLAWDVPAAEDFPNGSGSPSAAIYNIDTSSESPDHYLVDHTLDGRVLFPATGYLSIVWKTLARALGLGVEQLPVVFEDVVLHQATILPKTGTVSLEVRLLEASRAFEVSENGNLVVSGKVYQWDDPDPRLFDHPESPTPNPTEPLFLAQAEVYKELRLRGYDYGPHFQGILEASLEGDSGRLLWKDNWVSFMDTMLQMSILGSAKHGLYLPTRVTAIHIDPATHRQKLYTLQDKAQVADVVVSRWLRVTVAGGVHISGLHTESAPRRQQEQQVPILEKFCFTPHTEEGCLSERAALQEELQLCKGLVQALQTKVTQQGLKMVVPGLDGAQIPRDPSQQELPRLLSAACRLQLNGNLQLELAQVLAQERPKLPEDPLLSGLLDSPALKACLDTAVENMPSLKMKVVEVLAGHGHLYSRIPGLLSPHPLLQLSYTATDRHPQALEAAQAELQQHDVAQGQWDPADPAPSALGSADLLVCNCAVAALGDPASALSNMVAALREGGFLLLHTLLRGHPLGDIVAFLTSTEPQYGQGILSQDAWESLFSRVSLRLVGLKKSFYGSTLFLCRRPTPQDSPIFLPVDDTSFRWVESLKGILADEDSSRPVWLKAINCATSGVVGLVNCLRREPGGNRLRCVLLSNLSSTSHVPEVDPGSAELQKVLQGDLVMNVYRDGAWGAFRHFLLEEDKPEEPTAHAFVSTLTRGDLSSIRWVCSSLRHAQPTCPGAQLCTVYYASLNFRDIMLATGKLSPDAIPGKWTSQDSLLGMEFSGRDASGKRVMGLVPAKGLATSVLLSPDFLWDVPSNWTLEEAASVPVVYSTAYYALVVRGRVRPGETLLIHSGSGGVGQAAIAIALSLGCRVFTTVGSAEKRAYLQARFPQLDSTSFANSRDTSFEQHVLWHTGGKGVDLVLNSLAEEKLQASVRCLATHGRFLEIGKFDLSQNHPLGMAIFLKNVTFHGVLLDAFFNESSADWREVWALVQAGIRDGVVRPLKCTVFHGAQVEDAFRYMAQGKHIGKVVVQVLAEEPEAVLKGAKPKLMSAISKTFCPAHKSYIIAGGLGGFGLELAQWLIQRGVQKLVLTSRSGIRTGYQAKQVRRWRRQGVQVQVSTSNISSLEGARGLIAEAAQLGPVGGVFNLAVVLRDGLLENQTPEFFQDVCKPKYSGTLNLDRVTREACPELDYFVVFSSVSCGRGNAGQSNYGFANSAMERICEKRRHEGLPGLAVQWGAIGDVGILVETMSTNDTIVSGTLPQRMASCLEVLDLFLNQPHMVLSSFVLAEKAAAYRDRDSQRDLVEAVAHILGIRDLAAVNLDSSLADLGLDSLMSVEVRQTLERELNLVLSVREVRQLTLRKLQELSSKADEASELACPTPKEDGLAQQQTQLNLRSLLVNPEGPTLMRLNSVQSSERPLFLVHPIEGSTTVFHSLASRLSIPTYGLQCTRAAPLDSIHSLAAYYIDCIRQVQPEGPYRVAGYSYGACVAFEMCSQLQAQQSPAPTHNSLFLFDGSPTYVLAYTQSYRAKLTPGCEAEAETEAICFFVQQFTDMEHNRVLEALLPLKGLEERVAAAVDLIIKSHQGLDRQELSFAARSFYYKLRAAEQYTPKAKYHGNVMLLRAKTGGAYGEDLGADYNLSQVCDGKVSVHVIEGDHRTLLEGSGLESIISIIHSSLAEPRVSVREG
Sequence of Induced myeloid leukemia cell differentiation protein Mcl-1 (Q07820 whole entry): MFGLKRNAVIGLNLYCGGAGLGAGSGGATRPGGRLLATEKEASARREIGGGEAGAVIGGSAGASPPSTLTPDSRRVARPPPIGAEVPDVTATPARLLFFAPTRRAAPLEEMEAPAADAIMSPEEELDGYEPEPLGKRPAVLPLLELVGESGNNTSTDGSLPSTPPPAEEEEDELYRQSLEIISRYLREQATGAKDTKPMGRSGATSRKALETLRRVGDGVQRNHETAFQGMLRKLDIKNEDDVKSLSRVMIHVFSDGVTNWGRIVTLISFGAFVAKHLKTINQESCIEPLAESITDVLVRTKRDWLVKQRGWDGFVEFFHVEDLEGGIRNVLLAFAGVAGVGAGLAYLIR

Cc1cc(-c2ccccc2)nc(N/N=C/c2ccc([N+](=O)[O-])cc2)n1
IC50 (Fatty acid synthase [1]): 8.37 µM (active) | IC50 (Nonstructural protein 1): > 100 µM (active) | IC50 (Fatty acid synthase [2]): 6.41 µM (active)

O=[N+]([O-])c1ccc(N2CCCNCC2)c2ncccc12
EC50 [3]: 0.008 µM (active)

COc1cc(/C=N/Nc2n[nH]c3c4ccccc4nc-3n2)ccc1O
IC50 [4]: 3.9 µM (active)

Cc1csc2c(N3CCN(C(=O)NC(C)(C)C)CC3)ncnc12
EC50 [3]: 5.31 µM (active)

Cc1ccc2[nH]c(SCC(=O)Nc3cc(C(F)(F)F)ccc3N3CCOCC3)nc2c1
IC50 [5]: > 80 µM (inactive) | EC50 [6]: 5.2 µM (inconclusive) | EC50 [7]: 27.9 µM (active)

Cc1ccc(/C=C2\C(=O)NC(=O)N(CCc3ccc(F)cc3)C2=O)o1
IC50 [8]: 3.55 µM (active)

COCCN(C(S)=Nc1cccc(C)c1C)C(C)c1ccco1 (stereo not drawn)
IC50 [9]: > 67.6 µM (inactive) | IC50 (HEK293): > 67.6 µM (inactive)

CCN1C(=O)/C(=C2\C=Cc3cc(C)ccc3N2CC)OC1=S
IC50 (Nonstructural protein 1): > 100 µM (active) | IC50 (Protein skinhead-1): > 100 µM (inactive)

CCN(CC)c1ccc2c(C)cc(=O)oc2c1
AC50 (Cytochrome P450 3A4): 20 µM (inconclusive)

COc1cc(/C=N/NC(=O)c2cc(C34CC5CC(CC(C5)C3)C4)[nH]n2)ccc1O
AC50 [10]: 0.699 µM (active) | IC50 [8]: 2.69 µM (active)

COCCN(CCOC)c1nc(C)nc2c1nc(-c1ccccc1)n2CCN1CCCC1
AC50 (Cytochrome P450 3A4): 20 µM (inconclusive)

CC(C)c1ccc2c(c1)CCC1C(C)(C(N)=O)CCCC21C (stereo not drawn)
AC50 (Cytochrome P450 3A4): 20 µM (inconclusive)

CCOc1ccccc1NC(=O)Cn1cnc2c(cnn2-c2ccc(C)c(C)c2)c1=O
EC50 [11]: > 99 µM (inactive) | EC50 [12]: > 99 µM (inactive)

COc1ccc(/C=C2/CSC/C(=C/c3ccc(OC)c(OC)c3)C2=O)cc1OC
CC50 (Vero): 8.1 µM (active)

COc1ccc(-c2[nH]ncc2CN2CCN(Cc3cccs3)CC2)cc1F
IC50 [9]: > 67.5 µM (inactive) | IC50 (HEK293): > 67.5 µM (inactive)

CCOc1cnc(C(=O)NNC(=O)C(Br)C(C)C)o1 (stereo not drawn)
IC50 [9]: > 67.5 µM (inactive) | IC50 (HEK293): > 67.5 µM (inactive)

Clc1ccc2oc3c(Cl)ncnc3c2c1
IC50 [8]: 6.41 µM (active)

COc1ccccc1C(=O)NCc1nnc(SCC(=O)Nc2nccs2)n1C
IC50 [9]: > 67.6 µM (inactive) | IC50 (HEK293): > 67.6 µM (inactive)

COc1ccc(CN2CCC(n3nccc3NC(=O)CCc3ccccc3)CC2)c(C)c1C
EC50 [3]: 2.11 µM (active)

COc1ccc(C(CNC(=O)c2cccc(S(=O)(=O)NCc3ccccc3)c2)N(C)C)cc1 (stereo not drawn)
EC50 [3]: 0.421 µM (active)

COc1ccc(-c2cc3nc4n(c(=O)c3s2)CCCCC4)cc1
IC50 [9]: > 67.5 µM (inactive) | IC50 (HEK293): > 67.5 µM (inactive)

CCN1C(=O)/C(=C2\C=Cc3ccccc3N2CC)OC1=S
EC50 [11]: > 99 µM (inactive) | EC50 [12]: > 99 µM (inactive)

COc1ccc(/C=C2\CCCC(C(=O)C(F)(F)F)=C2O)cc1
EC50 [11]: > 99 µM (inactive) | EC50 [13]: 41.4 µM (active) | EC50 [12]: 33.8 µM (inactive) | EC50 [14]: 36 µM (inconclusive)

Oc1cc(-c2ccccc2)nc2cc(Cl)ccc12
EC50 (BJ [15]): 1.04 µM (active) | IC50 [5]: > 80 µM (inactive) | EC50 [6]: 2.42 µM (inconclusive) | EC50 (BJ [16]): 1.42 µM (inconclusive) | EC50 [17]: 0.906 µM (inconclusive) | EC50 (BJ [18]): 19.8 µM (active) | EC50 [19]: 0.209 µM (active) | EC50 [7]: 2.36 µM (active)

CC(C)=CCC/C(C)=C/C=C/C1=CC2(C)CC1(C)C(/C=C(\C)CCC=C(C)C)CC2=O (stereo not drawn)
AC50 (Cytochrome P450 3A4): 3.98 µM (inconclusive)
